In patent publication US20100267743A1, “3-(PHENOXYPYRROLIDIN-3-YL-METHYL)HETEROARYL, 3-(PHENYLPYRROLIDIN-3-YLMETHOXY)HETEROARYL, AND 3-(HETEROARYLPYRROLIDIN-3-YLMETHOXY)HETEROARYL COMPOUNDS” (priority 2009, published 2010):

Experiments:
SERT = SERT (Homo sapiens, UniProt P31645); assay: hSERT radioligand binding assay (3H-citalopram); set-up: expressed in transfected cells; host or cells: HEK-293; conditions: hSERT membranes (HEK-293), 1.0 nM 3H-citalopram; for Ki: read-out: SERT pKi (converted)
Procedure: (§1) Membrane radioligand binding assays were used to measure inhibition of labeled ligand (^3H-citalopram or ^3H-nisoxetine or ^3H-WIN35428) binding to membranes prepared from cells expressing the respective human recombinant transporter (hSERT or hNET or hDAT) in order to determine the pKi values of test compounds at the transporters.
(§2) Recombinant human embryonic kidney (HEK-293) derived cell lines stably transfected with hSERT or hNET, respectively, were grown in DMEM medium supplemented with 10% dialyzed FBS (for hSERT) or FBS (for hNET), 100 μg/ml penicillin, 100 μg/ml streptomycin, 2 mM L-glutamine and 250 μg/ml of the aminoglycoside antibiotic G418, in a 5% CO2 humidified incubator at 37° C. When cultures reached 80% confluence, the cells were washed thoroughly in PBS (without […] and Mg^2+) and lifted with 5 mM EDTA in PBS. Cells were pelleted by centrifugation, resuspended in lysis buffer (10 mM Tris-HCl, pH7.5 containing 1 mM EDTA), homogenized, pelleted by centrifugation, then resuspended in 50 mM Tris-HCl, pH 7.5 and 10% sucrose at 4° C. Protein concentration of the membrane suspension was determined using a Bio-Rad Bradford Protein Assay kit. Membranes were snap frozen and stored at −80° C. Chinese hamster ovary membranes expressing hDAT (CHO-DAT) were purchased from PerkinElmer and stored at −80° C.
(§3) Binding assays were performed in a 96-well assay plate in a total volume of 200 μl assay buffer (50 mM Tris-HCl, 120 mM NaCl, 5 mM KCl, pH 7.4) with 0.5, 1, and 3 μg membrane protein, for SERT, NET and DAT, respectively.
(§4) Stock solutions (10 mM in DMSO) of test compound were prepared and serial dilutions made using Dilution Buffer (50 mM Tris-HCl, 120 mM NaCl, 5 mM KCl, pH 7.4, 0.1% BSA, 400 μM ascorbic acid).
(§5) Following a 60 minute incubation at 22° C. (or a period sufficient to reach equilibrium), the membranes were harvested by rapid filtration over a 96-well UniFilter GF/B plate, pretreated with 0.3% polyethyleneimine, and washed 6 times with 300 μl wash buffer (50 mM Tris-HCl, 0.9% NaCl, pH 7.5 at 4° C.). Plates were dried overnight at room temperature, ˜45 μl of MicroScint™-20 (Perkin Elmer) added and bound radioactivity quantitated via liquid scintillation spectroscopy. Inhibition curves and saturation isotherms were analyzed using GraphPad Prism Software package (GraphPad Software, Inc., San Diego, Calif.). IC50 values were generated from concentration response curves using the Sigmoidal Dose Response (variable slope) algorithm in Prism GraphPad. Kd and Bmax values for the radioligand were generated from saturation isotherms using the Saturation Binding Global Fit algorithm in Prism GraphPad. pKi (negative decadic logarithm of Ki) values for test compounds were calculated from the best-fit IC50 values, and the Kd value of the radioligand, using the Cheng-Prusoff equation (Cheng & Prusoff (1973) Biochem. Pharmacol. 22(23):3099-3108): Ki=IC50/(1+[L]/Kd), where [L]=concentration radioligand.

NET = NET (Homo sapiens, UniProt P23975); assay: hNET radioligand binding assay (3H-nisoxetine); set-up: expressed in transfected cells; host or cells: HEK-293; conditions: hNET membranes (HEK-293), 1.0 nM 3H-nisoxetine; for Ki: read-out: NET pKi (converted)
Procedure: as §1, §2, §3, §4, §5

NET, sequence (P23975 whole entry): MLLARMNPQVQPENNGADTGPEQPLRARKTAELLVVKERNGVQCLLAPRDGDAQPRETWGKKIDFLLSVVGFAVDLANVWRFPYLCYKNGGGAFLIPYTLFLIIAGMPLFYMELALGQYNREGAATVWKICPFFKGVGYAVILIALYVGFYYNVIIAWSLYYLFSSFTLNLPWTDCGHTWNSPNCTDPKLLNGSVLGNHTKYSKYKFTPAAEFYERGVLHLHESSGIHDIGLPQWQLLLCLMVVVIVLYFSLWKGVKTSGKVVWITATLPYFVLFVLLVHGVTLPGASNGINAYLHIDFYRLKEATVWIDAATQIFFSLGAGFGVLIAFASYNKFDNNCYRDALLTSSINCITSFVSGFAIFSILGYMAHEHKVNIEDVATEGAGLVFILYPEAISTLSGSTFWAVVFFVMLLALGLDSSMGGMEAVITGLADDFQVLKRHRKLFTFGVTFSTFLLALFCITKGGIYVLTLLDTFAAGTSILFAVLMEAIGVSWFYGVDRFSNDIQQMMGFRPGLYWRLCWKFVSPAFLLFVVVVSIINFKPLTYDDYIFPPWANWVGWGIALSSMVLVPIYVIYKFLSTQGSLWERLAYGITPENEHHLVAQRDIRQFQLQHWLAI
SERT, sequence (P31645 whole entry): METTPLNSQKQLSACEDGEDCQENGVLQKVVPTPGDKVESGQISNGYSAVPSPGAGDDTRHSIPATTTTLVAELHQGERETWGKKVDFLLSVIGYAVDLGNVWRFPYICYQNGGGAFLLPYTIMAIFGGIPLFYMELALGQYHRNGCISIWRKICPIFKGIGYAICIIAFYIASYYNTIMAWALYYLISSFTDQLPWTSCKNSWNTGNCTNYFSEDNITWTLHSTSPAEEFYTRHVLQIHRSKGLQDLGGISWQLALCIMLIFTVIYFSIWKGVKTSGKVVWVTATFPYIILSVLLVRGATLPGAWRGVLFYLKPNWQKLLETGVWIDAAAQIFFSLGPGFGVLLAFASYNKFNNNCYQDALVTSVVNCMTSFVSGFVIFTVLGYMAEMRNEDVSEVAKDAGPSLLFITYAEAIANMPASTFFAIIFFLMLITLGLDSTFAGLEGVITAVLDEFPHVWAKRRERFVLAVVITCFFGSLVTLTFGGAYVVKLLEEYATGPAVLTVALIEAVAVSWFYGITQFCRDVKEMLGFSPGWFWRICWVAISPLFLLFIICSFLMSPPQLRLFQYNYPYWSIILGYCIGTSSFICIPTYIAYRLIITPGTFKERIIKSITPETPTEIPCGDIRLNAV

Row | Compound | Ki (SERT) [nM] | Ki (NET) [nM] | SERT pKi (SERT) | NET pKi (NET)
1 | CC(=O)c1cc(F)cc(F)c1O[C@@H](c1ncco1)[C@H]1CCNC1.O=C(O)C(F)(F)F [6-28] |  |  | ≧5.0 | ≧7.0
2 | Clc1ccc(Cl)c(O[C@@H](c2cccnc2)[C@H]2CCNC2)c1Cl [Example 2-67, 3-[(R)-(S)-Pyrrolidin-3-yl-(2,3,6-trichlorophenoxy)methyl]pyridine] | ≤ 100 | ≤ 100 |  | 
3 | COc1cc(Cl)ccc1O[C@@H](c1cncc(F)c1)[C@H]1CCNC1 [Example 1] | ≤ 100 | ≤ 100 |  | 
4 | Fc1ccc(O[C@H](c2cccnc2)[C@H]2CCNC2)c(F)c1 [Example 2-71, 3-[(S)-(2,4-Difluorophenoxy)-(S)-pyrrolidin-3-yl-methyl]pyridine] | ≤ 100 | ≤ 100 |  | 
5 | Cc1cccc(O[C@@H](c2ncco2)[C@H]2CCNC2)c1 [6-46] | ≤ 10000 | ≤ 10000 |  | 
6 | CCOc1ccccc1O[C@@H](c1ncco1)[C@H]1CCNC1.O=C(O)C(F)(F)F [6-38] |  |  | ≧5.0 | ≧7.0
7 | Fc1cc(F)c(Cl)c(O[C@@H](c2ncco2)[C@H]2CCNC2)c1Cl.O=C(O)C(F)(F)F [6-9] |  |  | ≧5.0 | ≧7.0
8 | Clc1cccc(O[C@@H](c2ncco2)[C@H]2CCNC2)c1Cl.O=C(O)C(F)(F)F [6-49] |  |  | ≧7.0 | ≧7.0
9 | COc1ncccc1O[C@@H](c1ccccc1)[C@H]1CCNC1.O=C(O)C(F)(F)F [15-17] |  |  | ≧7.0 | ≧7.0
10 | Clc1ccc(O[C@H](c2ccccc2)[C@@H]2CCNC2)nc1.O=C(O)C(F)(F)F [14-27] |  |  | ≧7.0 | ≧7.0
11 | Clc1cc(Cl)c(O[C@@H](c2ncco2)[C@H]2CCNC2)cc1Cl [6-1] | ≤ 100 | ≤ 100 |  | 
12 | Cc1c(O[C@@H](c2ccccc2)[C@H]2CCNC2)ccnc1Cl.O=C(O)C(F)(F)F [16-1] |  |  | ≧7.0 | ≧5.0
13 | Cc1cc(Cl)ccc1O[C@H](c1cncc(F)c1)[C@H]1CCNC1 [Example 2-61, 3-[(S)-(4-Chloro-2-methylphenoxy)-(S)-pyrrolidin-3-yl-methyl]-5-fluoropyridine] | ≤ 100 | ≤ 10000 |  | 
14 | Fc1cc(F)c(OC(c2nccs2)C2CCNC2)c(F)c1.O=C(O)C(F)(F)F (mixture of isomers) [Example 5-5, 2-[((S)-Pyrrolidin-3-yl-(2,4,6-trifluorophenoxy)methyl]thiazole] |  |  | ≧7.0 | ≧7.0
15 | Cc1c(Cl)cccc1O[C@@H](c1ncco1)[C@H]1CCNC1.O=C(O)C(F)(F)F [6-50] |  |  | ≧7.0 | ≧7.0
16 | Fc1ccc(OC(c2ccncc2)[C@H]2CCNC2)c(F)c1 (stereo partly drawn) [Example 3-3, 4-[(S)-(2,4-Difluorophenoxy)-pyrrolidin-3-yl-methyl]pyridine] | ≤ 10000 | ≤ 10000 |  | 
17 | Clc1ccc(O[C@@H](c2ncco2)[C@H]2CCNC2)cc1.O=C(O)C(F)(F)F [6-47] |  |  | ≧7.0 | ≧7.0
18 | Cc1ccc(F)c(OC(c2nccs2)C2CCNC2)c1Cl [Example 5-18, 2-[(R)-(2-Chloro-6-fluoro-3-methylphenoxy)-((S)-pyrrolidin-3-yl-methyl]thiazole] | ≤ 100 | ≤ 100 |  | 
19 | CC(C)c1ccccc1O[C@@H](c1ncco1)[C@H]1CCNC1.O=C(O)C(F)(F)F [6-32] |  |  | ≧5.0 | ≧7.0
20 | Fc1c(Cl)nc(O[C@@H](c2ccccc2)[C@H]2CCNC2)c(F)c1Cl.O=C(O)C(F)(F)F [14-6] |  |  | ≧7.0 | ≧7.0

Row | Compound | Ki (SERT) [nM] | Ki (NET) [nM] | SERT pKi (SERT) | NET pKi (NET)
21 | Clc1cccc(Cl)c1O[C@H](c1ccncc1)[C@H]1CCNC1 [Example 3-5, 4-[(S)-(2,6-Dichlorophenoxy)-(S)-pyrrolidin-3-yl-methyl]pyridine] | ≤ 100 | ≤ 100 |  | 
22 | FC(F)(F)Oc1ccccc1O[C@@H](c1ncco1)[C@H]1CCNC1 [6-37] | ≤ 10000 | ≤ 100 |  | 
23 | FC(F)(F)c1cnc(O[C@@H](c2ccccc2)[C@H]2CCNC2)c(Cl)c1.O=C(O)C(F)(F)F [14-25] |  |  | ≧7.0 | ≧5.0
24 | Clc1ccc(OC(c2ncco2)C2CCNC2)c(Cc2ccccc2)c1 (stereo not shown) [6-16] |  |  | ≧7.0 | ≧7.0
25 | Cc1cccc(C)c1O[C@@H](c1ncco1)[C@H]1CCNC1.O=C(O)C(F)(F)F [6-14] |  |  | ≧7.0 | ≧7.0
26 | CCc1cc(F)cc(F)c1O[C@H](c1cncc(F)c1)[C@@H]1CCNC1 [Example 2-57, 3-[(R)-(2-Ethy1-4,6-difluorophenoxy)-(S)-pyrrolidin-3-yl-methyl]-5-fluoropyridine] |  |  | ≧7.0 | ≧7.0
27 | Clc1cccc(O[C@@H](c2ncco2)[C@H]2CCNC2)c1.O=C(O)C(F)(F)F [6-45] |  |  | ≧5.0 | ≧7.0
28 | Clc1cnc(OC(c2ccccc2)C2CCNC2)c(Cl)c1 (stereo not shown) [14-14] |  |  | ≧7.0 | ≧7.0
29 | Fc1ccc(OC(c2nccs2)[C@H]2CCNC2)c(Cl)c1 (stereo partly drawn) [Example 5-20, 2-[(S)-(2-Chloro-4-fluorophenoxy)-pyrrolidin-3-yl-methyl]thiazole] | ≤ 100 | ≤ 100 |  | 
30 | Fc1cncc([C@H](Oc2cccc3ccccc23)[C@H]2CCNC2)c1.O=C(O)C(F)(F)F [19-2] |  |  | ≧7.0 | ≧7.0
31 | Cc1cc(Cl)ccc1O[C@@H](c1cncnc1)[C@H]1CCNC1.O=C(O)C(F)(F)F [12-3] |  |  | ≧7.0 | ≧7.0
32 | O=C(O)C(F)(F)F.c1ccc(-c2ccccc2O[C@@H](c2ncco2)[C@H]2CCNC2)cc1 [6-42] |  |  | ≧5.0 | ≧7.0
33 | Clc1cc(O[C@@H](c2ccccc2)[C@H]2CCNC2)cc(Cl)n1.O=C(O)C(F)(F)F [16-2] |  |  | ≧7.0 | ≧5.0
34 | COc1ccccc1O[C@H](c1cncc(F)c1)[C@H]1CCNC1 [Example 2-63, 3-Fluoro-5-[(S)-(2-methoxyphenoxy)-(S)-pyrrolidin-3-yl-methyl]pyridine] | ≤ 10000 | ≤ 10000 |  | 
35 | Fc1cc(F)c(O[C@@H](c2cncc(Cl)c2)[C@H]2CCNC2)c(F)c1 [Example 2-33, 3-Chloro-5-[(R)-(S)-pyrrolidin-3-yl-(2,4,6-trifluorophenoxy)methyl]pyridine] | ≤ 100 | ≤ 100 |  | 
36 | Fc1ccc(F)c(O[C@@H](c2cncnc2)[C@H]2CCNC2)c1Cl.O=C(O)C(F)(F)F [12-1] |  |  | ≧5.0 | ≧7.0
37 | Clc1cc(Cl)cc(O[C@@H](c2ccco2)[C@H]2CCNC2)c1 [Example 8-3, (S)-3-[(R)-(3,5-Dichlorophenoxy)furan-2-yl-methyl]pyrrolidine] | ≤ 100 | ≤ 100 |  | 
38 | Fc1cccc(O[C@@H](c2ccccc2)[C@H]2CCNC2)n1.O=C(O)C(F)(F)F [14-10] |  |  | ≧5.0 | ≧7.0
39 | Fc1cc(F)c(Cl)c(O[C@@H](c2nccs2)[C@H]2CCNC2)c1Cl [Example 5-8] |  |  | ≧5.0 | ≧5.0

More lines, main results first:

Row | Ki (SERT) [nM] | Ki (NET) [nM] | Compound | SERT pKi (SERT) | NET pKi (NET)
40 | ≤ 100 | ≤ 100 | Cc1ccccc1C(Oc1cccc2ccccc12)C1CCNC1 (stereo not shown) [21-3] |  | 
41 | ≤ 100 | ≤ 100 | Clc1cccc(C(Oc2cccc3ccccc23)C2CCNC2)c1 (stereo not shown) [21-5] |  | 
42 | ≤ 100 | ≤ 10000 | c1ccc(C(Oc2cccnc2)C2CCNC2)cc1 (stereo not shown) [15-32] |  | 
43 | ≤ 100 | ≤ 100 | Fc1ccc(O[C@@H](c2ccccc2)C2CCNC2)c2ccccc12 (stereo partly shown) [21-9] |  | 
44 | ≤ 100 | ≤ 10000 | Clc1cc(O[C@@H](c2ccccc2)C2CCNC2)ccn1 (stereo partly shown) [16-3] |  | 
